# Laboratory results reported in US20020071842A1, “Soluble CD1 compositions and uses thereof” (priority 2000, published 2002).
# How the values were obtained:
# [1] = system: T cells in PBMCs purified from a healthy donor; assay: Three color flow cytometric staining of PBMCs with lipid loaded CD1d-Fc aggregates; assay type: cell-based, human; details: CD1d-Fc aggregate treated with antigen, anti-CD3 and anti-CD161 co-staining
# Procedure: To facilitate binding to CD1 specific T cells for detection by flow cytometry, a highly multimerized form of the CD1d fusion protein was formed using fluorescently labeled protein A molecules. Protein A molecules spontaneously associate in solution at neutral pH with immunoglobulin Fc regions, forming complexes containing four Fc molecules and two protein A molecules (4+2 complexes, reference 2). The human CD1d-Fc fusion protein was incubated with Alexa 488 dye labeled protein A, and the 4+2 complexes purified by size exclusion chromatography on a Pharmacia Superose 6 column using PBS pH 7.2 as a running buffer. The purified 4+2 aggregates were concentrated to 100 μg/ml with ovalbumin as a carrier protein. The CD1d-Fc aggregate was then pre-incubated for 24 to 48 hours at 37° C. with antigenic glycolipids dissolved in DMSO at a 40:1 molar ratio of lipid to fusion protein, or with an equivalent volume of DMSO alone as a negative control. The T cell staining was performed at room temperature or 4° C. for 20 min, at a concentration of 40 μg/ml of the lipid or control treated CD1d-Fc aggregate.
# To facilitate binding to CD1 specific T cells for detection by flow cytometry, a highly multimerized form of the CD1d fusion protein is formed using fluorescently labeled protein A molecules. […]
# [2] = system: α-GalCer reactive NKT cell hybridomas; assay: Plate-bound mCD1d fusion protein hybridoma stimulation assay, hybridoma panel; assay type: cell-based, mouse; details: some of the α-GalCer reactive NKT cell hybridomas
# Text: Our observation that two NKT cell hybridomas, 24.8.A and 24.9.E, differed in their antigen reactivity, raised the possibility that NKT cells may have heterogeneous antigen specificities. To extend our analysis of NKT cells, and to compare antigen recognition by mCD1d-restricted T cells of the diverse TCR population, we tested 9 NKT and 8 diverse TCR mCD1d-restricted hybridomas for recognition of 14 purified and synthetic lipid antigens (see Tables 1 and 2). None of the hybridomas produced detectable IL-2 in response to a negative control protein, and only the 24.8.A hybridoma secreted detectable IL-2 in response to untreated mCD1d fusion protein (Table 2). Eight out of nine NKT cell hybridomas were potently stimulated by α-GalCer treated fusion protein, whereas none of the diverse TCR hybridomas reproducibly recognized this antigen (Table 2). […]
# IL-2 secreted in the hybridoma stimulation assays was quantitated in a double antibody sandwich ELISA, by comparison to a standard curve of purified murine IL-2 (Pharmingen, San Diego, Calif.). […] IL-2 was detected by addition of a biotinylated rat anti-mouse IL-2 antibody, followed by addition of a streptavidin-alkaline phophatase conjugate, and a chromogenic substrate. The pg/ml of IL-2 present in the hybridoma supernatants was quantitated by linear regression of the IL-2 standard curve.
Molecule,T cells stained relative to CD1d-Fc treated with DMSO alone [1],T cells stained relative to the UPC10 negative control [1],activity relative to synthetic α-GalCer [2]
"CCCCCCCCCCCCCCCCCCCCCCCCCC(=O)N[C@@H](CO[C@H]1O[C@H](CO)[C@H](O)[C@H](O)[C@H]1O)[C@H](O)[C@H](O)CCCCCCCCCCCCCC [α-GalCer, α-galactosylceramide]",about 6 fold,about 10 fold,–
phosphatidylinositol [PI],–,–,10-20%
